Starred links: 1 amine or outer side, 2 acyl side, 3 side chain; linkers in the order of their positions; H or OH if unused. Positions of bridges follow the written chain, without caps; N, C: chain ends. Non-standard residues stand in square brackets, D forms with d. Residues, ends and D or L forms follow the SMILES beside them. ξ: configuration not given here. *: point of attachment. Glu(NHSO2Me) = CS(=O)(=O)NC(=O)CC[C@H](N)C(=O)O; Phe(4-CF3) = N[C@@H](Cc1ccc(C(F)(F)F)cc1)C(=O)O; NMeAla(4-thiazolyl) = CN[C@@H](Cc1cscn1)C(=O)O; NMePhe(3-Cl) = CN[C@@H](Cc1cccc(Cl)c1)C(=O)O; NMeW = CN[C@@H](Cc1c[nH]c2ccccc12)C(=O)O; hNle(7,7-F2) = N[C@@H](CCCCC(F)F)C(=O)O; X3 = O=C([C@H](CCCCO)N[*:1])[*:2]; Hyp = O=C(O)[C@@H]1C[C@@H](O)CN1; NMeF = CN[C@@H](Cc1ccccc1)C(=O)O; NMeI = CC[C@H](C)[C@H](NC)C(=O)O; NMeD = CN[C@@H](CC(=O)O)C(=O)O; NMeL = CN[C@@H](CC(C)C)C(=O)O; Propyl(2R-OH) = C[C@@H](O)C*; ξNMeF = CNC(Cc1ccccc1)C(=O)O; NMeV = CN[C@H](C(=O)O)C(C)C; NMeAbu = CC[C@H](NC)C(=O)O; NPentylGly = CCCCCNCC(=O)O; NMeA = CN[C@@H](C)C(=O)O; Piperidide = C1CCN(*)CC1; NBuGly = CCCCNCC(=O)O; NPrGly = CCCNCC(=O)O; X2 = Fc1cncc(C*)c1; Sar = CNCC(=O)O; tBu = CC(C)(C)*
Test: Caco-2 membrane permeability, improved method as used in the following Examples (96-well, 20 to 24 h preincubation)
Type: in vitro ADME
Conditions: human, Caco-2, Caco-2
Protocol: In the following Examples, membrane permeability was measured in accordance with the improved method established as described above. Specifically, Caco-2 cells were cultured on a 96-well Transwell for three weeks, after which DMEM+FaSSIF (1% DMSO)+compound were added to the apical side and DMEM was added to the basal side, and the cells were preincubated at 5% CO2, 37° C., and 80 rpm for 20 to 24 hours. Following the preincubation, measurement of membrane permeability was initiated by removing the preincubation solution on the apical and basal sides by suction, washing the membrane, and adding FaSSIF/HBSS buffer (1% DMSO) (pH 6.0) containing the compound to the apical side and HBSS buffer (4% BSA) (pH 7.4) to the basal side. Each well was shaken at 5% CO2, 37° C., and 80 rpm, and 180 minutes after the initiation, the sample on the basal side was collected and the permeation amount was measured by LC/MS. The membrane permeability coefficient (Papp) was calculated from the permeation amount. Herein, the terms “Caco-2 (cm/sec)” in the columns in the tables and “Papp (cm/sec)” are used in the same meaning.
With CCCCN1CC(=O)N(C)[C@@H](C(C)C)C(=O)N[C@H](C(=O)N2CCCCC2)CC(=O)N(C)[C@@H](CC)C(=O)N[C@@H](CCC(=O)NS(C)(=O)=O)C(=O)N(C)[C@@H](CC(C)C)C(=O)N(C)[C@@H](Cc2cccc(Cl)c2)C(=O)N[C@@H](CC(C)C)C(=O)N(C)[C@@H](Cc2ccccc2)C(=O)N(C)[C@@H](CC(C)C)C(=O)N[C@@H]([C@@H](C)O)C1=O [pd63] ([NMeAbu][Glu(NHSO2Me)][NMeL][NMePhe(3-Cl)]L[NMeF][NMeL]T[NBuGly][NMeV]D-Piperidide; lactam N-11) the Papp A→B at 180 min was < 0.1 ×10⁻⁶ cm/s. Molecule CC[C@H](C)[C@H]1C(=O)N[C@@H]([C@@H](C)O)C(=O)N(C)CC(=O)N(C)[C@@H](CC(C)C)C(=O)N[C@H](C(=O)N2CCCCC2)CC(=O)N(C)[C@@H](C)C(=O)N[C@@H](CC(C)C)C(=O)N(C)[C@@H](CC(C)C)C(=O)N(C)[C@@H](Cc2ccccc2)C(=O)N[C@@H](CCCCC(F)F)C(=O)N(C)[C@@H](Cc2ccccc2)C(=O)N1C [pd335] ([NMeA]L[NMeL][NMeF][hNle(7,7-F2)][NMeF][NMeI]T[Sar][NMeL]D-Piperidide; lactam N-11) has a Papp A→B at 180 min of 2 ×10⁻⁶ cm/s. CCCCCN1CC(=O)N[C@@H]([C@@H](C)O)C(=O)N(C)[C@@H](C)C(=O)N(C)[C@@H](CC(C)C)C(=O)N[C@@H](COC(C)(C)C)C(=O)N(C)[C@@H](Cc2ccccc2)C(=O)N(C)[C@@H](CC(C)C)C(=O)N[C@H](C(=O)N2CCCCC2)CC(=O)N[C@H](C)C(=O)N(C)[C@@H](Cc2ccccc2)C(=O)N[C@@H](C(C)C)C1=O [pd407] ([dA][NMeF]V[NPentylGly]T[NMeA][NMeL]S(tBu)[NMeF][NMeL]D-Piperidide; lactam N-11) gave a Papp A→B at 180 min of 3 ×10⁻⁶ cm/s. With CC(C)C[C@@H]1NC(=O)[C@H](Cc2ccccc2)N(C)C(=O)[C@@H](C(C)C)NC(=O)C[C@@H](C(=O)N2CCCCC2)NC(=O)[C@H](C(C)C)N(C)C(=O)[C@H](Cc2ccccc2)N(C)C(=O)[C@H](CCCCC(F)F)NC(=O)[C@H](CC(C)C)N(C)C(=O)CN(C)C(=O)[C@H]([C@@H](C)O)NC(=O)[C@H](CC(C)C)N(C)C1=O [pd332] ([dV][NMeF]L[NMeL]T[Sar][NMeL][hNle(7,7-F2)][NMeF][NMeV]D-Piperidide; lactam N-11) the Papp A→B at 180 min was 1.5 ×10⁻⁶ cm/s. CCCN1CC(=O)N(C)[C@@H](CC(C)C)C(=O)N[C@H](C(=O)N2CCCCC2)CC(=O)N(C)[C@@H](C)C(=O)N[C@@H](COC[C@@H](C)O)C(=O)N(C)[C@@H](CC(C)C)C(=O)N(C)[C@@H](Cc2cccc(Cl)c2)C(=O)N[C@@H](CC(C)C)C(=O)N(C)[C@@H](Cc2ccccc2)C(=O)N(C)[C@@H]([C@@H](C)CC)C(=O)N[C@@H]([C@@H](C)O)C1=O [pd425] ([NMeA]S(Propyl(2R-OH))[NMeL][NMePhe(3-Cl)]L[NMeF][NMeI]T[NPrGly][NMeL]D-Piperidide; lactam N-11) gave a Papp A→B at 180 min of 1.2 ×10⁻⁶ cm/s. CCO[C@@H]1C[C@H]2C(=O)N[C@H](C(=O)N3CCCCC3)CC(=O)N[C@@H](C(C)C)C(=O)NCC(=O)N(C)[C@@H](CC(C)C)C(=O)N(C)[C@@H](CC(C)C)C(=O)N(C)[C@@H](CC(C)C)C(=O)N(C)[C@@H](Cc3ccccc3)C(=O)N[C@@H]([C@@H](C)O)C(=O)N(C)[C@@H](Cc3ccccc3)C(=O)N(C)[C@@H](CC(C)C)C(=O)N2C1 [pd374] (VG[NMeL][NMeL][NMeL][NMeF]T[NMeF][NMeL][Hyp](Et)D-Piperidide; lactam N-11) showed a Papp A→B at 180 min of 2.5 ×10⁻⁶ cm/s. In the case of CC(C)C[C@@H]1NC(=O)[C@H](C)N(C)C(=O)C[C@@H](C(=O)N2CCCCC2)NC(=O)[C@H](CC(C)C)N(C)C(=O)CN(C)C(=O)[C@H](CCCCO)NC(=O)[C@H](CC(C)C)N(C)C(=O)[C@H](Cc2ccccc2)N(C)C(=O)[C@H](CC(C)C)NC(=O)[C@H](Cc2ccccc2)N(C)C(=O)[C@H](CC(C)C)N(C)C1=O [pd451] ([NMeA]L[NMeL][NMeF]L[NMeF][NMeL][X3][Sar][NMeL]D-Piperidide; lactam N-11), the Papp A→B at 180 min is reported as 4.1 ×10⁻⁶ cm/s.

Same assay, conditions: human, Caco-2, Caco-2 (cm/sec)
Molecule CC[C@H](C)[C@@H]1NC(=O)[C@H](CC(C)C)N(C)C(=O)CN(C)C(=O)C[C@@H](C(=O)N2CCCCC2)NC(=O)[C@H](C)N(C)C(=O)[C@H](COC(C)(C)C)NC(=O)[C@H](CC(C)C)N(C)C(=O)[C@H](CC(C)C)N(C)C(=O)CN(C)C(=O)[C@H](Cc2c[nH]c3ccccc23)NC(=O)[C@H](CC(C)C)N(C)C1=O [pd103] ([Sar][NMeL]I[NMeL]W[Sar][NMeL][NMeL]S(tBu)[NMeA]D-Piperidide; lactam N-11) has a Papp A→B at 180 min of 0.093 ×10⁻⁶ cm/s. CC(C)C[C@H]1C(=O)N(C)[C@@H](CC(C)C)C(=O)N(C)[C@@H](Cc2c[nH]c3ccccc23)C(=O)N[C@@H]([C@@H](C)O)C(=O)N(C)[C@@H](C)C(=O)N(C)[C@@H](CC(C)C)C(=O)N[C@H](C(=O)N2CCCCC2)CC(=O)N(C)[C@@H](C)C(=O)N(C)[C@@H](CC(C)C)C(=O)N(C)[C@@H](CC(C)C)C(=O)N[C@@H](C)C(=O)N1C [pd105] ([NMeA][NMeL][NMeL]A[NMeL][NMeL][NMeW]T[NMeA][NMeL]D-Piperidide; lactam N-11) gave a Papp A→B at 180 min of 0.28 ×10⁻⁶ cm/s. Molecule CC(C)C[C@@H]1NC(=O)[C@H](Cc2ccccc2)N(C)C(=O)C[C@@H](C(=O)N2CCCCC2)NC(=O)[C@H](CC(C)C)N(C)C(=O)CN(C)C(=O)[C@H]([C@@H](C)O)NC(=O)[C@H](Cc2ccccc2)N(C)C(=O)[C@H](Cc2ccccc2)N(C)C(=O)[C@H](CC(C)C)NC(=O)[C@H](Cc2ccccc2)N(C)C(=O)[C@H](CC(C)C)N(C)C1=O [pd227] ([NMeF]L[NMeL][NMeF]L[NMeF][NMeF]T[Sar][NMeL]D-Piperidide; lactam N-11) has a Papp A→B at 180 min of 0.61 ×10⁻⁶ cm/s. Molecule CC(C)C[C@@H]1NC(=O)[C@H](Cc2ccccc2)N(C)C(=O)[C@H](COC(C)(C)C)NC(=O)[C@H](Cc2ccccc2)N(C)C(=O)[C@H](C)N(C)C(=O)[C@H](CC(C)C)N(C)C(=O)[C@@H]2CCCN2C(=O)N[C@@H](C(=O)N2CCCCC2)NC(=O)[C@H](Cc2ccccc2)N(C)C(=O)[C@H]([C@@H](C)O)NC(=O)[C@H](CC(C)C)N(C)C1=O [pd214] has a Papp A→B at 180 min of 1.2 ×10⁻⁶ cm/s. With CC(C)C[C@@H]1NC(=O)[C@H](CC(C)C)N(C)C(=O)[C@H](CC(C)C)N(C)C(=O)CN(C)C(=O)[C@H]([C@@H](C)O)NC(=O)[C@H](CC(C)C)N(C)C(=O)[C@H](CC(C)C)N(C)C(=O)[C@H](Cc2ccc(C(F)(F)F)cc2)NC(=O)[C@@H](C(C)C)NC(=O)C[C@@H](C(=O)N2CCCCC2)NC1=O [pd148] ([dV][Phe(4-CF3)][NMeL][NMeL]T[Sar][NMeL][NMeL]LD-Piperidide; lactam N-10) the Papp A→B at 180 min was 1.1 ×10⁻⁶ cm/s. CC(C)C[C@H]1C(=O)N[C@@H](COC(C)(C)C)C(=O)N(C)[C@@H](Cc2ccccc2)C(=O)N(C)[C@@H](C(C)C)C(=O)N[C@H](C(=O)N2CCCCC2)CC(=O)N[C@H](C(C)C)C(=O)N(C)C(Cc2ccccc2)C(=O)N[C@@H](COCc2cncc(F)c2)C(=O)N(C)[C@@H](CC(C)C)C(=O)N[C@@H]([C@@H](C)O)C(=O)N(C)CC(=O)N1C (stereo partly drawn) [pd180] ([dV][ξNMeF]S(X2)[NMeL]T[Sar][NMeL]S(tBu)[NMeF][NMeV]D-Piperidide; lactam N-11) gave a Papp A→B at 180 min of 2.4 ×10⁻⁶ cm/s. With CC(C)C[C@H]1C(=O)N(C)CC(=O)N[C@@H](Cc2ccccc2)C(=O)N[C@@H](Cc2ccc(C(F)(F)F)cc2)C(=O)N(C)[C@@H](CC(C)C)C(=O)N(C)[C@@H](CC(C)C)C(=O)N[C@@H]([C@@H](C)O)C(=O)N(C)[C@H](C(=O)N2CCCCC2)CC(=O)N1C [pd150] ([NMeL][Sar]F[Phe(4-CF3)][NMeL][NMeL]T[NMeD]-Piperidide; lactam N-8) the Papp A→B at 180 min was 1.7 ×10⁻⁶ cm/s. In the case of CC(C)C[C@@H]1NC(=O)[C@H](Cc2cccc(Cl)c2)N(C)C(=O)[C@@H](C)NC(=O)C[C@@H](C(=O)N2CCCCC2)NC(=O)[C@H](CC(C)C)N(C)C(=O)[C@H](Cc2ccccc2)N(C)C(=O)[C@H](COC(C)(C)C)NC(=O)[C@H](C(C)C)N(C)C(=O)CN(C)C(=O)[C@H]([C@@H](C)O)NC(=O)[C@H](CC(C)C)N(C)C1=O [pd157] ([dA][NMePhe(3-Cl)]L[NMeL]T[Sar][NMeV]S(tBu)[NMeF][NMeL]D-Piperidide; lactam N-11), the Papp A→B at 180 min is reported as 2.2 ×10⁻⁶ cm/s. CC(C)C[C@H]1C(=O)N[C@@H](COC(C)(C)C)C(=O)N(C)[C@@H](Cc2ccccc2)C(=O)N(C)[C@@H](CC(C)C)C(=O)N(C)[C@H](C(=O)N2CCCCC2)CC(=O)N[C@H](C)C(=O)N(C)[C@@H](Cc2cccc(Cl)c2)C(=O)N[C@@H](C(C)C)C(=O)N(C)[C@@H](C(C)C)C(=O)N[C@@H]([C@@H](C)O)C(=O)N(C)CC(=O)N1C [pd159] ([dA][NMePhe(3-Cl)]V[NMeV]T[Sar][NMeL]S(tBu)[NMeF][NMeL][NMeD]-Piperidide; lactam N-11) gave a Papp A→B at 180 min of 1.8 ×10⁻⁶ cm/s.

Same assay, conditions: human, Caco-2; Papp; Table 24, sequences where ARC = 4; read-out: Caco-2
CC(C)C[C@@H]1NC(=O)[C@H](C)N(C)C(=O)C[C@@H](C(=O)N2CCCCC2)NC(=O)[C@H](CC(C)C)N(C)C(=O)CN(C)C(=O)[C@H]([C@@H](C)O)NC(=O)[C@H](Cc2cscn2)N(C)C(=O)[C@H](Cc2ccccc2)N(C)C(=O)[C@H](Cc2ccccc2)NC(=O)[C@H](Cc2ccccc2)NC(=O)[C@H](CC(C)C)N(C)C1=O [pd236] ([NMeA]L[NMeL]FF[NMeF][NMeAla(4-thiazolyl)]T[Sar][NMeL]D-Piperidide; lactam N-11) gave a Papp A→B at 180 min of 0.096 ×10⁻⁶ cm/s.

Reference: patent US20200131669A1, “CYCLIC PEPTIDE COMPOUND HAVING HIGH MEMBRANE PERMEABILITY, AND LIBRARY CONTAINING SAME” (Chugai Seiyaku Kabushiki Kaisha, priority 2017, published 2020)
